In patent US10881110B2, “Herbicidal compositions comprising isoxazolo[5,4-b]pyridines” (BASF SE, priority 2014, dated 2021):

Columns and labels:
Assay in all cases: greenhouse post-emergence herbicidal test
[1] = system: ERICA; type: in vivo, Conyza canadensis; details: post emergence; 6 days after treatment; g/ha a.i.: I.1 125; naptalam 50; mixture 125+50
Summary of the method: (§1)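 Plants were grown in loamy sand (approx. 4.6% humus, 69.9% sand) to 1–15 cm and sprayed post-emergence with actives suspended or emulsified in water, from a 10% by weight emulsion concentrate. Kept at 10-25° C or 20-35° C by species, damage was scored 0–100 at 20 days.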

[2] = system: MATCH; type: in vivo, Matricaria recutita; details: post emergence
Summary of the method: as §1

[3] = system: SASKR; type: in vivo, Salsola kali; set-up: key: scale 0 to 100; details: 6 days after treatment
Protocol: (§2) The culture containers used were plastic pots containing medium loamy sand with approximately 4.6% of humus and 69.9% sand as substrate. The seeds of the test plants were sown separately for each species.
(§3) For the post-emergence treatment, the test plants were grown to a plant height of from 1 to 15 cm, depending on the plant habit, and only then treated with the active compounds which had been suspended or emulsified in water. To this end, the test plants were either sown directly, and grown in the same containers, or they were first grown separately as seedlings and transplanted into the test containers a few days prior to treatment.
(§4) Depending on the species, the plants were kept at 10-25° C. and 20-35° C., respectively.
(§5) The test period extended over 1 to 3 weeks. During this time, the plants were tended and their response to the individual treatments was evaluated 20 days after treatment except mentioned otherwise.
(§6) Evaluation was carried out using a scale from 0 to 100. 100 means no emergence of the plants, or complete destruction of at least the above-ground parts, and 0 means no damage or normal course of growth.
(§7) The respective stated components A and B, and, if appropriate, C, were formulated as a 10% by weight strength emulsion concentrate and, with addition of the amount of solvent system, introduced into the spray liquor used for applying the active compound. In the examples, the solvent used was water.
(§8) In the examples below, using the method of S. R. Colby (1967) “Calculating synergistic and antagonistic responses of herbicide combinations”, Weeds 15, p. 22 ff., the value E, which is expected if the activity of the individual active compounds is only additive, was calculated. E=X+Y−(X·Y/100)

[4] = system: POLCO; type: in vivo, Polygonum convolvulus; set-up: key to herbicidal activity against POLCO found: rating on a scale from 0 to 100; details: post emergence, 6 days after treatment
Summary of the method: (§9)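 Post-emergence greenhouse test: plants in loamy sand, sprayed at 1–15 cm height with aqueous spray liquor from 10% emulsion concentrates, kept at 10-25 °C or 20-35 °C by species. Damage scored 0–100 (100 = complete destruction), usually 20 days after treatment. Expected additive effect E from Colby: E=X+Y−(X·Y/100).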

[5] = system: POLAV; type: in vivo, Polygonum aviculare; set-up: key: rating on a scale from 0 to 100; details: 6 days after treatment
Protocol: as §2, §3, §4, §5, §6, §7, §8

[6] = system: CONAR; type: in vivo, Convolvulus arvensis; set-up: key: rating on a scale from 0 to 100; details: 6 days after treatment
Summary of the method: as §1

[7] = system: VIOAR; type: in vivo, Viola arvensis; set-up: key to herbicidal activity against VIOAR found / herbicidal activity against VIOLA found: rating on a scale from 0 to 100; details: post emergence, 6 days after treatment
Summary of the method: as §9

[8] = system: SORVU; type: in vivo; details: 6 days after treatment
[9] = system: ABUTH; type: in vivo, Abutilon theophrast; set-up: key to herbicidal activity against ABUTH found: rating on a scale from 0 to 100; details: post emergence, 6 days after treatment, g/ha a.i.: I.1 31.25
Summary of the method: as §1

[10] = system: KCHSC; type: in vivo, Kochia scoparia; set-up: key to herbicidal activity against KCHSC found: rating on a scale from 0 to 100; details: post emergence, 6 days after treatment
Summary of the method: as §9

[11] = system: CHEAL; type: in vivo, Chenopodium album; details: a.i. g/ha: I.1 20.8, B.192 62.5, 20 days after treatment
Summary of the method: as §1

[12] = system: SETVI; type: in vivo, Setaria viridis; details: a.i. g/ha: I.1 20.8, B.192 62.5, 20 days after treatment
Protocol: as §2, §3, §4, §5
Evaluation was carried out using a scale from 0 to 100. […]
In the examples below, using the method of S. R. Colby (1967) “Calculating synergistic and antagonistic responses of herbicide combinations”, Weeds 15, p. 22 ff., the value E, which is expected if the activity of the individual active compounds is only additive, was calculated. […]

[13] = system: AMARE; type: in vivo, Amaranthus retroflexus; details: a.i. g/ha: I.1 20.8, B.192 62.5, 20 days after treatment
Protocol: as §2, §3, §4, §5, §6, §7, §8

[14] = system: AMBEL; type: in vivo, Ambrosia artemisiifolia; details: a.i. g/ha: I.1 20.8, B.192 62.5, 20 days after treatment
Summary of the method: as §1

[15] = system: GALAP; type: in vivo, Galium aparine; set-up: key to herbicidal activity against GALAP found: rating on a scale from 0 to 100; details: post emergence, 6 days after treatment, g/ha a.i.: I.1 62.5
Summary of the method: as §9

[16] = system: STEME; type: in vivo, Stellaria media; set-up: key: scale 0 to 100; details: 6 days after treatment, g/ha a.i.: I.1 31.25, B.96 35, mixture 31.25+35
Summary of the method: as §1

[17] = system: IPOHE; type: in vivo, Ipomoea hederacea; set-up: key to herbicidal activity against IPOHE found: rating on a scale from 0 to 100; details: post emergence, 6 days after treatment
Summary of the method: as §9

[18] = system: POLPE; type: in vivo, Persicaria maculosa; set-up: key: scale 0 to 100; details: 6 days after treatment, g/ha a.i.: I.1 31.25, B.96 35, mixture 31.25+35
Protocol: as §2, §3, §4, §5, §6, §7, §8

[19] = g/ha a.i.: I.1 31.25, naptalam 200, mixture 31.25+200
[20] = g/ha a.i.: I.1 62.5, naptalam 50, mixture 62.5+50
[21] = g/ha a.i.: I.1 62.5, naptalam 200, mixture 62.5+200
[22] = g/ha a.i.: I.1 31.25, naptalam 50, mixture 31.25+50
[23] = g/ha a.i.: I.1 62.5, naptalam 100, mixture 62.5+100
[24] = g/ha a.i.: I.1 31.25, naptalam 100, mixture 31.25+100
[25] = g/ha a.i.: I.1 62.5, B.96 140, mixture 62.5+140
[26] = g/ha a.i.: I.1 31.25, B.96 70, mixture 31.25+70
[27] = g/ha a.i.: I.1 31.25, B.96 140, mixture 31.25+140
[28] = g/ha a.i.: I.1 62.5, B.96 70, mixture 62.5+70
[29] = g/ha a.i.: I.1 31.25, B.96 35, mixture 31.25+35
[30] = g/ha a.i.: I.1 62.5, B.96 35, mixture 62.5+35

O=C(O)c1ccccc1C(=O)Nc1cccc2ccccc12 [naptalam]
herbicidal activity against ERICA found [1]: 80
herbicidal activity against MATCH found ([2]; 6 days after treatment, g/ha a.i.: I.1 31.25, naptalam 50, mixture 31.25+50): 30
herbicidal activity against MATCH found ([2]; 6 days after treatment, g/ha a.i.: I.1 31.25, naptalam 100, mixture 31.25+100): 65
herbicidal activity against MATCH found ([2]; 6 days after treatment, g/ha a.i.: I.1 62.5, naptalam 50, mixture 62.5+50): 30
herbicidal activity against SASKR found [3, 19]: 80
herbicidal activity against SASKR found [3, 20]: 70
herbicidal activity against SASKR found [3, 21]: 80
herbicidal activity against POLCO found [4, 22]: 75
herbicidal activity against POLCO found [4, 20]: 75
herbicidal activity against POLAV found [5, 22]: 70
herbicidal activity against POLAV found [5, 19]: 75
herbicidal activity against POLAV found [5, 20]: 70
herbicidal activity against POLAV found [5, 23]: 75
herbicidal activity against POLAV found [5, 21]: 75
herbicidal activity against CONAR found [6, 22]: 80
herbicidal activity against CONAR found [6, 24]: 80
herbicidal activity against CONAR found [6, 19]: 80
herbicidal activity against CONAR found ([6]; g/ha a.i.: I.1 125, naptalam 100, mixture 125+100): 80
herbicidal activity against VIOAR found [7, 19]: 70
herbicidal activity against VIOAR found [7, 23]: 65
herbicidal activity against VIOAR found [7, 21]: 70
herbicidal activity against SORVU found [8, 21]: 50
herbicidal activity against ABUTH found ([9]; naptalam 100, mixture 31.25+100): 85
herbicidal activity against KCHSC found [10, 24]: 85
herbicidal activity against KCHSC found [10, 19]: 85

COC(=O)Nc1cccc(OC(=O)Nc2cccc(C)c2)c1 [B.192, phenmedipham]
herbicidal activity against MATCH found ([2]; a.i. g/ha: I.1 20.8, B.192 62.5, 20 days after treatment): 50%
herbicidal activity against CHEAL found [11]: 50%
herbicidal activity against SETVI found [12]: 65%
herbicidal activity against AMARE found [13]: 35%
herbicidal activity against AMBEL found [14]: 90%

CS(=O)(=O)c1ccc(C(=O)C2=C(Sc3ccccc3)C3CCC(C3)C2=O)c(Cl)c1 (stereo not drawn) [B.96, benzobicyclon]
herbicidal activity against GALAP found ([15]; B.96 70, mixture 62.5+70): 75
herbicidal activity against GALAP found ([15]; B.96 140, mixture 62.5+140): 80
herbicidal activity against SASKR found [3, 25]: 65
herbicidal activity against POLCO found [4, 26]: 70
herbicidal activity against POLCO found [4, 27]: 80
herbicidal activity against POLCO found [4, 28]: 70
herbicidal activity against POLCO found [4, 25]: 80
herbicidal activity against POLAV found [5, 28]: 70
herbicidal activity against POLAV found [5, 25]: 70
herbicidal activity against STEME found [16]: 85
herbicidal activity against IPOHE found [17, 29]: 70
herbicidal activity against IPOHE found [17, 26]: 70
herbicidal activity against IPOHE found [17, 27]: 70
herbicidal activity against IPOHE found [17, 25]: 70
herbicidal activity against CONAR found [6, 25]: 75
herbicidal activity against VIOAR found [7, 29]: 65
herbicidal activity against VIOAR found [7, 26]: 65
herbicidal activity against VIOAR found [7, 27]: 65
herbicidal activity against VIOAR found [7, 30]: 65
herbicidal activity against VIOAR found [7, 28]: 65
herbicidal activity against VIOAR found [7, 25]: 65
herbicidal activity against SORVU found [8, 27]: 60
herbicidal activity against ABUTH found ([9]; B.96 35, mixture 31.25+35): 80
herbicidal activity against ABUTH found ([9]; B.96 70, mixture 31.25+70): 85
herbicidal activity against KCHSC found [10, 29]: 35
herbicidal activity against KCHSC found [10, 26]: 40
herbicidal activity against KCHSC found [10, 27]: 55
herbicidal activity against KCHSC found [10, 30]: 35
herbicidal activity against KCHSC found [10, 28]: 40
herbicidal activity against POLPE found [18]: 85
